Results taken from patent US20230295068A1, “NOVEL CYCLOALKENONE COMPOUND OR SALT THEREOF” (TAIHO PHARMACEUTICAL CO., LTD., priority 2020, published 2023).

Tested on: ND3 neuronal cell line
Assay: Measurement of nerve growth stimulation effect (neurite bearing assay, neurite length assay, number of cells)
Format: cell-based
Settings: relative cell number, DMSO well = 1; for Number of cells: ND3 cells, 6 h; for viability at 1 µM / viability at 3 µM / viability at 5 µM / viability at 10 µM / viability at 30 µM / viability at 100 µM: 6 hours
Protocol: To evaluate the nerve growth stimulation effect, neurite bearing assay (proportion of neurite-bearing cells) and neurite length assay (neurite length) were analyzed with reference to the method of Topalli et al. (Brain Research 1030 (2004), pp. 116-124).
An ND3 neuronal cell line (European Collection of Authenticated Cell Cultures) was seeded in a DMEM medium containing 10% fetal bovine serum (0.6×10^4 cells/1 mL) in a 24-well plate. 24 hours later, the medium of seeded cells was removed, and a solution in which the compound of the present disclosure that was sequentially diluted in dimethyl sulfoxide (DMSO) was adjusted in DIEM containing 0.1% bovine serum albumin so that the DMSO final concentration was 0.1%, was added to cells (evaluation performed in duplicate). After six hours from the addition, the proportion of neurite-bearing cells (the number of cells having a neurite longer than the diameter of the cell body/number of total cells), and the neurite length per cell were analyzed. The number of total cells, proportion of neurite-bearing cells, and neurite length per cell were analyzed using a MetaMorph Neurite Outgrowth Application Module (Molecular Devices Japan K.K.). The number of cells was defined as the relative cell number, taking the number of cells per well containing DMSO as 1. The relative activity of each compound when the maximum activity of 3-(15-methoxypentadecyl)-2,4,4-trimethylcyclohexa-2-en-1-one (compound 24) in each test was defined as 1 is shown (Table 9). For the compounds for which multiple tests were conducted, the average value was shown. Data with a number of cells of 0.5 or more was also used. Accordingly, if the number of cells was less than 0.5, the neurite length per cell and the proportion of neurite-bearing cells were defined as “-”.

COCCCCCCCCCCCCC1=C(C)C(=O)CC1(C)C [Compound 70, 3-(12-methoxydodecyl)-2,4,4-trimethylcyclopent-2-en-1-one] was tested, and the Number of cells (1 μM compound) was 0.84, the Number of cells (3 μM compound) was 0.91 and the Number of cells (5 μM compound) was 0.91. It also gave a Number of cells (10 μM compound) of 0.86, a Number of cells (30 μM compound) of 0.79 and a Number of cells (100 μM compound) of 0.73.

Work on CCOCCCCCCCCCCCCCCCCC1=C(C)C(=O)CCC1(C)C [Compound 30, 3-(16-ethoxyhexadecyl)-2,4,4-trimethylcyclohex-2-en-1-one] yielded a viability at 1 µM of 88%, a viability at 3 µM of 91% and a viability at 5 µM of 83%. For the same compound, the viability at 10 µM was 87%, the viability at 30 µM was 95% and the viability at 100 µM was 98%.

CC1=C(CCCCCCCCCCCCCCCCO)C(C)(C)CCC1=O [Compound 5, 3-(16-hydroxyhexadecyl)-2,4,4-trimethylcyclohex-2-en-1-one, reference compound] showed a viability at 1 µM of 111%, a viability at 3 µM of 109% and a viability at 5 µM of 105%. The viability at 10 µM was 83%, the viability at 30 µM was 49% and the viability at 100 µM was 40%.

COCCCCCCCCCCCCCCCC1=C(C)C(=O)C=CC1(C)C [Compound 41, 3-(15-methoxypentadecyl)-2,4,4-trimethylcyclohex-2,5-dien-1-one] was tested, and the viability at 1 µM was 110%, the viability at 3 µM was 112% and the viability at 5 µM was 82%. The viability at 10 µM was 93%, the viability at 30 µM was 109% and the viability at 100 µM was 114%.

Compound CC1=C(CCCCCCCCCCCCCCCOC2CCCCO2)C(C)(C)CCC1=O (centres unmarked) [Compound 6, 2,4,4-trimethyl-3-(15-((tetrahydro-2H-pyran-2-yl)oxy)pentadecyl)cyclohex-2-en-1-one, reference compound] has a viability at 1 µM of 97%, a viability at 3 µM of 85% and a viability at 5 µM of 67%. The viability at 10 µM was 64%, the viability at 30 µM was 72% and the viability at 100 µM was 92%.

For CCNC(=O)OCCCCCCCCCCCCCCCC1=C(C)C(=O)CCC1(C)C [Compound 56, 15-(2,6,6-trimethyl-3-oxocyclohex-1-en-1-yl)pentadecylethylcarbamate], the viability at 1 µM was 94%, the viability at 3 µM was 106% and the viability at 5 µM was 93%. For the same compound, the viability at 10 µM was 95%, the viability at 30 µM was 95% and the viability at 100 µM was 93%.

CCOCCCCCCCCCCCCCC1=C(C)C(=O)CCC1(C)C [Compound 17, 3-(13-ethoxytridecyl)-2,4,4-trimethylcyclohex-2-en-1-one] was tested, and the viability at 1 µM was 99%, the viability at 3 µM was 105% and the viability at 5 µM was 97%. The viability at 10 µM was 104%, the viability at 30 µM was 72% and the viability at 100 µM was 81%.

Work on [2H]C([2H])([2H])OCCCCCCCCCCCCCCCC1=C(C)C(=O)CCC1(C)C [Compound 27, 3-(15-(methoxy-d3)pentadecyl)-2,4,4-trimethylcyclohex-2-en-1-one] yielded a viability at 3 µM of 90%, a viability at 5 µM of 87% and a viability at 10 µM of 83%. It also gave a viability at 30 µM of 83% and a viability at 100 µM of 88%.

Work on COCCCCCCCCCCCCCCCC1=C(C(C)C)C(=O)CCC1(C)C [Compound 62, 2-isopropyl-3-(15-methoxypentadecyl)-4,4-dimethylcyclohex-2-en-1-one] yielded a Number of cells (1 μM compound) of 0.92, a Number of cells (3 μM compound) of 0.89 and a Number of cells (5 μM compound) of 0.83. It also gave a Number of cells (10 μM compound) of 0.78, a Number of cells (30 μM compound) of 0.91 and a Number of cells (100 μM compound) of 0.91.

For COC(C)(C)CCCCCCCCCCCCCCC1=C(C)C(=O)CCC1(C)C [Compound 48, 3-(15-methoxy-15-methylhexadecyl)-2,4,4-trimethylcyclohex-2-en-1-one], the viability at 1 µM was 85%, the viability at 3 µM was 93% and the viability at 5 µM was 91%. The viability at 10 µM was 90%, the viability at 30 µM was 93% and the viability at 100 µM was 87%.

In the case of CC1=C(CCCCCCCCCCCCCO)C(C)(C)CCC1=O [Compound 2, 3-(13-hydroxytridecyl)-2,4,4-trimethylcyclohex-2-en-1-one, reference compound], the viability at 1 µM is reported as 113%, the viability at 3 µM is reported as 102% and the viability at 5 µM is reported as 96%. The viability at 10 µM was 96%, the viability at 30 µM was 19% and the viability at 100 µM was 9%.

Compound CCCCOCCCCCCCCCCCCC1=C(C)C(=O)CCC1(C)C [Compound 15, 3-(12-butoxydodecyl)-2,4,4-trimethylcyclohex-2-en-1-one] has a viability at 1 µM of 93%, a viability at 3 µM of 100% and a viability at 5 µM of 95%. For the same compound, the viability at 10 µM was 88%, the viability at 30 µM was 101% and the viability at 100 µM was 92%.

For CC1=C(CCCCCCCCCCCCO)C(C)(C)CCC1=O [Compound 1, 3-(12-hydroxydodecyl)-2,4,4-trimethylcyclohex-2-en-1-one, reference compound], the viability at 1 µM was 103%, the viability at 3 µM was 105% and the viability at 5 µM was 99%. The viability at 10 µM was 103%, the viability at 30 µM was 99% and the viability at 100 µM was 9%.

Compound CC1=C(CCCCCCCCCCCCCCC#N)C(C)(C)CC1=O [Compound 75, 15-(2,5,5-trimethyl-3-oxocyclopent-1-en-1-yl)pentadecanitrile] has a Number of cells (1 μM compound) of 0.89, a Number of cells (3 μM compound) of 0.93 and a Number of cells (5 μM compound) of 0.94. For the same compound, the Number of cells (10 μM compound) was 0.80, the Number of cells (30 μM compound) was 0.75 and the Number of cells (100 μM compound) was 0.80.

CC1=C(CCCCCCCCCCCCCCCOC(N)=O)C(C)(C)CCC1=O [Compound 35, 15-(2,6,6-trimethyl-3-oxocyclohex-1-en-1-yl)pentadecylcarbamate] showed a viability at 1 µM of 94%, a viability at 3 µM of 94% and a viability at 5 µM of 99%. For the same compound, the viability at 10 µM was 82%, the viability at 30 µM was 16% and the viability at 100 µM was 31%.

Compound CNC(=O)CCCCCCCCCCCCCCC1=C(C)C(=O)CCC1(C)C [Compound 33, N-methyl-15-(2,6,6-trimethyl-3-oxocyclohex-1-en-1-yl)pentadecanamide] has a viability at 1 µM of 92%, a viability at 3 µM of 90% and a viability at 5 µM of 83%. The viability at 10 µM was 86%, the viability at 30 µM was 91% and the viability at 100 µM was 80%.

Work on COCCCCCCCCCCCCCCCC1=C(C)C(=O)CC1 [Compound 45, 3-(15-methoxypentadecyl)-2-methylcyclopent-2-en-1-one] yielded a viability at 1 µM of 94%, a viability at 3 µM of 90% and a viability at 5 µM of 74%. The viability at 10 µM was 83%, the viability at 30 µM was 71% and the viability at 100 µM was 75%.

For CC1=C(CCCCCCCCCCCCCCCOc2ccccc2)C(C)(C)CCC1=O [Compound 51, 3-(15-phenoxypentadecyl)-2,4,4-trimethylcyclohex-2-en-1-one], the viability at 1 µM was 107%, the viability at 3 µM was 103% and the viability at 5 µM was 93%. It also gave a viability at 10 µM of 93%, a viability at 30 µM of 96% and a viability at 100 µM of 94%.

COCCCCCCCCCCCCCCCCC1=C(C)C(=O)CCC1(C)C [Compound 29, 3-(16-methoxyhexadecyl)-2,4,4-trimethylcyclohex-2-en-1-one] showed a viability at 1 µM of 107%, a viability at 3 µM of 98% and a viability at 5 µM of 96%. For the same compound, the viability at 10 µM was 92%, the viability at 30 µM was 97% and the viability at 100 µM was 93%.

CC1=C(CCCCCCCCCCCCCCC#N)C(C)(C)CCC1=O [Compound 34, 15-(2,6,6-trimethyl-3-oxocyclohex-1-en-1-yl)pentadecanitrile] was tested, and the viability at 1 µM was 106%, the viability at 3 µM was 101% and the viability at 5 µM was 96%. It also gave a viability at 10 µM of 98%, a viability at 30 µM of 98% and a viability at 100 µM of 97%.

In the case of [2H]C([2H])(CCCCCCCCCCCCCCC1=C(C)C(=O)CCC1(C)C)OC [Compound 28, 3-(15-methoxypentadecyl-15,15-d2)-2,4,4-trimethylcyclohex-2-en-1-one], the viability at 1 µM is reported as 92%, the viability at 3 µM is reported as 86% and the viability at 5 µM is reported as 71%. It also gave a viability at 10 µM of 68%, a viability at 30 µM of 77% and a viability at 100 µM of 86%.

CC1=C(CCCCCCCCCCCCCCCOC(C)C)C(C)(C)CCC1=O [Compound 26, 3-(15-isopropoxypentadecyl)-2,4,4-trimethylcyclohex-2-en-1-one] showed a viability at 1 µM of 102%, a viability at 3 µM of 100% and a viability at 5 µM of 93%. The viability at 10 µM was 90%, the viability at 30 µM was 98% and the viability at 100 µM was 101%.

In the case of CC1=C(CCCCCCCCCCCCCCOC(C)C)C(C)(C)CCC1=O [Compound 23, 3-(14-isopropoxytetradecyl)-2,4,4-trimethylcyclohex-2-en-1-one], the viability at 1 µM is reported as 103%, the viability at 3 µM is reported as 112% and the viability at 5 µM is reported as 98%. It also gave a viability at 10 µM of 95%, a viability at 30 µM of 98% and a viability at 100 µM of 102%.
